The test system of assay [1] is cAMP stimulated parietal cells. The experiment in a line: Isolated parietal cell assay, inhibition of 14C-aminopyrine accumulation, dibutyryl cAMP stimulated. It counts as cell-based, rabbit. Conditions: Example 48, 37° C., read-out: IC50 vcAMP (inhibition of 14C-AP accumulation in cAMP stimulated parietal cells). As to the method:
(§1) Isolated Parietal Cell Assay
(§2) The isolated parietal cell assay was conducted using the procedures of Batzri, S. et al., Biochemica et Biophysica Acta 508, 328 (1978) and Soll, A. H. Am. J. Physiol. 238, G366 (1980). Basically, parietal cells were isolated from the fundic mucosa of rabbit stomachs by a four-stage collagenase digestion process. The supernatant fractions from the last two stages of this process contain the individual parietal cells. This cell suspension was centrifuged and reconstituted in a modified Hank's buffer to contain 1-2×10^6 cells/ml. […] This accumulation was stimulated by histamine and was blocked by H2 antagonists. The cells were incubated with 0.4-0.5×10^6 cpm ^14 C-AP, with various concentrations of histamine as a stimulant, 1×10^-5 M isobutylmethylxanthine, and the test compound added in a 20 μl volume of buffer or DMSO. The flasks were incubated in a shaking water bath at 37° C. for 20 minutes. Two aliquots were then taken from each flask and cell pellets were collected by centrifugation. The pellets were solubilized with Protosol (New England Nuclear) and radioactivity determined by liquid scintillation spectrometry. Data is presented as the IC50 vhist, the concentration of compound required to inhibit ^14 C-AP accumulation in the histamine stimulated parietal cell by 50%. When dibutyryl cAMP was used to stimulate the cells instead of histamine, a similar inhibition of ^14 C-AP accumulation was measured and the data are presented as the IC50 vcAMP, the concentration required to inhibit ^14 C-AP accumulation in the cAMP stimulated parietal cells by 50%.

In a further assay the test system is acid output. The experiment in a line: Gastric secretion, acid output in pylorus ligated rats. It counts as in vivo, male Charles River Sprague Dawley derived rats. The following applies: Example 50, @ 20 mpK, i.d. or s.c., four hours after pylorus ligation, compared to control; for response vs control in vivo at 20 mg/kg: Rattus norvegicus, 4 h, read-out: % Acid Secreted at mpK. As to the method:
The inhibitory activity of the compounds on acid output was tested using pylorus ligation in a modification of the procedure of Shay, H. et al., Gastroenterology 26, 906 (1954). Basically, male Charles River Sprague Dawley derived rats weighing 150-300 grams were deprived of food but not water for 18-24 hours prior to use. Water was withheld during the experiment, however. The rats were weighed, anesthetized with ether and the pylorus ligated according to the method of Shay et al., supra. Treatment or vehicle control was then administered intraduodenally (i.d.) or subcutaneously (s.c.). Rats were housed two/cage and sacrificed with CO2 four hours after ligation. The stomachs were removed, rinsed, and contents emptied into a graduated centrifuge tube. The tubes were centrifuged, the volume of gastric juice recorded, and any samples obviously contaminated by feces, food or blood were eliminated. A 1 ml aliquot of gastric juice was titrated with 0.1N NaOH to a pH of 7.0-7.4. The volume of gastric juice secreted, the acid concentration, and the product of the volume times the concentration, i.e., the total amount of acid secreted, were measured.

Assay [2] has as its target T1, parietal cell H^+ K^+ ATPase (Oryctolagus cuniculus, UniProt P27112).
T1 construct: determined in fundic mucosa from New Zealand white rabbits which were homogenized; from tissue; host or cells: fundic mucosa of New Zealand white rabbits, homogenized; membrane protein
In words: Inhibition of parietal cell H+ K+ ATPase. It counts as biochemical, New Zealand white rabbits. Conditions: Example 49; given as "50% @ x μM"; read-out: % Inhibition at Concentration (H+ K+ ATPase): concentration given for 50% inhibition. As to the method:
Inhibition of Parietal Cell H^+ K^+ ATPase
The activity was measured in a 1 ml incubation volume containing 50 mM Tris pH 7.4, 2 mM MgCl2, 2 mM Na2 ATP, with or without 20 mM KCl and vehicle control (dimethylsulfoxide) or test compound added in a 0.02 ml volume. Typically, 20-50 μg membrane protein was added and the tubes were preincubated with test compound for 10 minutes at 37° C. Substrate, Na2 ATP, was then added and the tubes were incubated for another 15 minutes at 37° C. The reaction was stopped by the addition of 1 ml 14% trichloroacetic acid and the samples were centrifuged at 2,000 xg for 10 minutes. The amount of inorganic phosphate present in an aliquot of supernatant was determined. H^+ K^+ ATPase activity was determined after correcting for the basal (Mg^++ only) enzyme activity present in the membrane preparation.

Assay [3] deals with histamine stimulated parietal cell. The experiment in a line: Isolated parietal cell assay, inhibition of 14C-aminopyrine accumulation, histamine stimulated. It counts as cell-based, rabbit. Conditions: Example 48, 37° C., read-out: IC50 vhist (inhibition of 14C-AP accumulation in histamine stimulated parietal cell). On the procedure:
as §1, §2

Where two headings read alike, the source gives them in different places.

3 molecules from US4861897A, “2-Aryloxyalkylaminobenzoxazoles and 2-aryloxyalkylaminobenzothiazoles” (Ortho Pharmaceutical Corporation, priority 1987, dated 1989) can be followed below.

T1 sequence (P27112 2-1035 limits assumed): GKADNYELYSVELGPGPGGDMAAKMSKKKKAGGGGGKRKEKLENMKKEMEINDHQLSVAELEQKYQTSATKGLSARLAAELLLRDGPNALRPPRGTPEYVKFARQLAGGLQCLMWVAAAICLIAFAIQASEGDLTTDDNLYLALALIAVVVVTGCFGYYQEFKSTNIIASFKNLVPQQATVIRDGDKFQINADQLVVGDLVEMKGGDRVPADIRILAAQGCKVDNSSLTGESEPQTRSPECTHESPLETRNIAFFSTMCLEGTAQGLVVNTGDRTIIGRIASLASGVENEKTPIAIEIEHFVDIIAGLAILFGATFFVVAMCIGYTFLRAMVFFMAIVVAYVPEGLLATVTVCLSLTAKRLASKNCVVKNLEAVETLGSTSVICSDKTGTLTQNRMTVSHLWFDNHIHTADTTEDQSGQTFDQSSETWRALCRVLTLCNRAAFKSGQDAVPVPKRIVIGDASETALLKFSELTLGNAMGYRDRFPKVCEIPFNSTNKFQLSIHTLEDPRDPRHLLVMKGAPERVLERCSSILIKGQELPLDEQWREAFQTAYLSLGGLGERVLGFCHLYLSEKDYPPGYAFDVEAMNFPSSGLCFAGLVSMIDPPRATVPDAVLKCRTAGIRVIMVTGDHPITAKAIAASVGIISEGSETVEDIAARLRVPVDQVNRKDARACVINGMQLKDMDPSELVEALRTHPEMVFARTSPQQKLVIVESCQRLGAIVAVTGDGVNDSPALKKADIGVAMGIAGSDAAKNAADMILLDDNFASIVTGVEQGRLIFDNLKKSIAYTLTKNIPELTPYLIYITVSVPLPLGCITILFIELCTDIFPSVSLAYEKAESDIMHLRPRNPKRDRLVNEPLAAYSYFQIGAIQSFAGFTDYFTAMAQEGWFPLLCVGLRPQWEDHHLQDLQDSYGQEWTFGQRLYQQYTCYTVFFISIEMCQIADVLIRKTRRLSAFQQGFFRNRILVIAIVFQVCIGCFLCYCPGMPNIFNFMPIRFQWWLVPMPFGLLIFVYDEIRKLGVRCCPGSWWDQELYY
T1 sequence (P18597 whole entry partner): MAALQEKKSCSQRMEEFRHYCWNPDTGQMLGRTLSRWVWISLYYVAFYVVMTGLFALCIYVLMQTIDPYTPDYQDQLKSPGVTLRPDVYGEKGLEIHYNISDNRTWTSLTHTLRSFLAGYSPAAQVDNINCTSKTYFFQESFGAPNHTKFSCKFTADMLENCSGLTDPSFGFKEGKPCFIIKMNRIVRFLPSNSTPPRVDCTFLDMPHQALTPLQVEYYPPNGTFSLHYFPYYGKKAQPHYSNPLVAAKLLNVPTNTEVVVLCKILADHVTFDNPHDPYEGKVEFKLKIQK

For `CCCN(CCC)CCCOc1c(OC)cc(/C=C/c2nc3ccccc3o2)cc1OC` [Example 46, (E)-2-[2-(3,5-Dimethoxy-4-dipropylaminopropoxyphenyl)ethenyl]benzoxazole], the IC50 in assay [1] (Oryctolagus cuniculus, 20 min) is 360 nM; in assay [2], 33 µM; in assay [3] (Oryctolagus cuniculus, 20 min), 150 nM. The response vs control in vivo at 20 mg/kg in the assay on acid output is 46%.

`CCCN(CCC)CCCOc1c(C)cc(/C=C/c2nc3ccccc3o2)cc1C` [Example 47]: the IC50 in assay [1] (Oryctolagus cuniculus, 20 min) stood at 100 nM; in assay [2], 15 µM; in assay [3] (Oryctolagus cuniculus, 20 min), 140 nM. Further, in the assay with acid output, the response vs control in vivo at 20 mg/kg was determined as 90%.

Regarding “(E)-2-[2-[4-(3-Methylbenzylaminopropoxy)phenyl]ethenyl]benzoxazole [Example 13]”, the figures for the IC50 in assay [1] (20 minutes), in assay [2] and in assay [3] (20 minutes) were 1400 nM, 66 µM and 410 nM, respectively. For the same molecule, the “% Acid Secreted at mpK” value in the assay on acid output came to 34%.
